# Values of other authors, collected in publication PMC4876630 (Theranostics, 2016).
# Conditions: ref [4]-[8]
structure (smiles),measurement,value
"CC[C@@]1(O)C(=O)OCc2c1cc1n(c2=O)Cc2cc3ccccc3nc2-1 [CPT, camptothecin]",Aqueous solubility,2 to 3 µg/mL
